Experimental data from EP1149907A1, “EDG8 receptor, its preparation and use” (Aventis Pharma Deutschland GmbH, priority 2000, dated 2001).

Tests used:
Assay in all cases: FLIPR assay of intracellular Ca2+ mobilization in transiently transfected CHO cells
human EDG8, SEQ ID NO. 2 = format: cell-based; conditions: for increase in intracellular Ca2+ ([Ca2+]i): CHO cells transiently transfected with EDG8 and G-protein α subunits G16 and Gqi5, lipids applied at 10, 100 and 1000 nM (Fig.3)
Procedure: Fig.2 depicts measurement of the intracellular Ca2+ concentration, mediated by S1P via the different S1P-receptors EDG1, 3, 5, 6 and the putative S1P-receptor EDG8, cotransfected in CHO cells with empty vector DNA as a control or various G-protein α subunits. Intracellular Ca2+ concentrations were recorded as real time measurements using the Fluorescence plate imaging reader (FLIPR, Molecular Devices). […] As already known for a large number of Gq-coupled receptors, coexpression of Gaq augments the EDG1 and 5-mediated Ca2+-release as compared with the Ca2+ signal induced by stimulation of endogeneous Gaq. […] The reason for this discrepancy could be the cellular background, as Yamazaki Y. et al. (2000) reported that the Ca2+ signal can be completely abolished in the presence of pertussis toxin (PTX), indicating the involvement of Gi-type G-proteins. In this case the Ca2+ signal would be elicited by bg, released from activated Gaibg heterotrimers. The Gαi-induced Ca2+ signals are known to be much smaller in intensity as compared with the Ca2+ signals induced by bona-fide Gq-linked receptors (Kostenis et al., 1997a; Kostenis et al., 1997b). It may be that detection of such Ca2+ concentrations is beyond the sensitivity of the FLIPR system. […] To check, whether the EDG8 receptor also reacts to related lysophospholipid mediators, we examined the abilities of lysophosphatidic acid (LPA), dihydrosphingosin 1-phosphate (DHS1P), sphingosylphosphorylcholine (SPC) and lysophosphatidylcholine (LPC) to increase intracellular Ca2+ in CHO cells transiently transfected with the EDG8 receptor and the G-protein α subunits G16 and Gqi5 (Fig.3).
(§1) Fig.2: Mobilization of intracellular Ca^2+ by S1P mediated by the EDG1, 3, 5 and 8 receptor in CHO cells, cotransfected with empty vector DNA as a control or the indicated G-protein α subunits. Agonist-mediated changes of intracellular Ca^2+ were measured with the FLIPR using the Ca^2+-sensitive dye FLUO4. Fluorescence of transfected cells loaded with FLUO4 was recorded before and after addition of S1P, applied in the indicated concentrations. Data are expressed as means of quadruplicate determinations in a single experiment. An additional experiment gave similar results.
Fig.3: Effects of S1P, LPA and related lysophospholipid mediators on EDG8-mediated increase in intracellular Ca^2+ measured with the FLIPR as described in the legend of […]. The different lipids were applied in concentrations of 10, 100 and 1000 nM, respectively. Data are means of quadruplicate determinations of a representative experiment. Two additional experiments gave similar results.
CHO-K1 cells were grown in basal ISCOVE medium supplemented with 10% fetal bovine serum at 37°C in a humidified 5% CO2 incubator. For transfections, 2 x 10^5 cells were seeded into 35-mm dishes. About 24 hr later cells were transiently transfected at 50-80% confluency with the indicated receptor and G-protein constructs (1µg of plasmid DNA each) using the Lipofectamine transfection reagent and the supplied protocol (GIBCO). 18-24 hr after transfection cells were seeded into 96well plates at a density of 50.000 cells per well and cultured for 18-24 additional hr until used in the functional FLIPR assays. The cDNA for Gα16 was cloned from TF1 cells by RT-PCR and ligated into the pCDNA1.1 mammalian expression vector (Invitrogen). Murine wild type Gαq was cloned from cells by RT-PCR and inserted into the BamHI-NsiI-sites of pCDNA1.1. To create the C-terminally modified Gαqi5 subunit, in which the last five aa of wt Gαq were replaced with the correspoding Gαi sequence, a 175-bp Bg/II-NsiI fragment was replaced, in a two piece ligation, with a synthetic DNA fragment, containing the desired codon changes. The correctness of all PCR-derived sequences was verified by sequencing in both directions.
Twenty-four hours after transfection, cells were splitted into 96-well, black-wall microplates (Corning) at a density of 50,000 cells per well. […]

EDG1 = format: cell-based, human; conditions: CHO cells transfected with EDG1, no cotransfected G-protein α subunit (Fig.2)
Procedure: (§2) Fig.2 depicts measurement of the intracellular Ca2+ concentration, mediated by S1P via the different S1P-receptors EDG1, 3, 5, 6 and the putative S1P-receptor EDG8, cotransfected in CHO cells with empty vector DNA as a control or various G-protein α subunits. Intracellular Ca2+ concentrations were recorded as real time measurements using the Fluorescence plate imaging reader (FLIPR, Molecular Devices). […] As already known for a large number of Gq-coupled receptors, coexpression of Gaq augments the EDG1 and 5-mediated Ca2+-release as compared with the Ca2+ signal induced by stimulation of endogeneous Gaq. […] The reason for this discrepancy could be the cellular background, as Yamazaki Y. et al. (2000) reported that the Ca2+ signal can be completely abolished in the presence of pertussis toxin (PTX), indicating the involvement of Gi-type G-proteins. In this case the Ca2+ signal would be elicited by bg, released from activated Gaibg heterotrimers. The Gαi-induced Ca2+ signals are known to be much smaller in intensity as compared with the Ca2+ signals induced by bona-fide Gq-linked receptors (Kostenis et al., 1997a; Kostenis et al., 1997b). It may be that detection of such Ca2+ concentrations is beyond the sensitivity of the FLIPR system. […]
as §1, with “An additional experiment gave similar results.” left out

EDG3 = format: cell-based, human; conditions: CHO cells transfected with EDG3, no cotransfected G-protein α subunit (Fig.2)
Procedure: as §2
as §1, with “An additional experiment gave similar results.” left out

EDG5 = format: cell-based, human; conditions: CHO cells transfected with EDG5, no cotransfected G-protein α subunit (Fig.2)
Procedure: as §2
as §1, with “An additional experiment gave similar results.” left out

EDG6 = format: cell-based, human; conditions: CHO cells transfected with EDG6, no cotransfected G-protein α subunit
Procedure: as §2

Q: How did the “increase in intracellular Ca2+ ([Ca2+]i)” value (human EDG8, SEQ ID NO. 2) turn out when `CCCCCCCCCCCCCCC[C@@H](O)[C@@H](N)COP(=O)(O)O` [DHS1P, dihydrosphingosin 1-phosphate] was run?
A: evoked [Ca2+]i increases in concentrations of 100 and 1000 nM

Q: Which “increase in intracellular Ca2+ ([Ca2+]i)” value (human EDG8, SEQ ID NO. 2) does the source give for `CCCCCCCC/C=C\CCCCCCCC(=O)OCC(O)COP(=O)(O)O` (centres unmarked) [LPA, lysophosphatidic acid] here?
A: evoked [Ca2+]i increases in concentrations of 100 and 1000 nM

Q: `CCCCCCCCCCCCC/C=C/[C@@H](O)[C@@H](N)COP(=O)(O)O` [S1P, sphingosin 1-phosphate] was tested. Which “mobilization of intracellular Ca2+” value (human EDG8, SEQ ID NO. 2; CHO cells cotransfected with EDG8 and Gα16 or Gαqi5 (Fig.2)) did it give?
A: gained the ability to mobilize Ca2+

Q: And the “mobilization of intracellular Ca2+” value (human EDG8, SEQ ID NO. 2; CHO cells transfected with EDG8, no cotransfected G-protein α subunit (Fig.2))?
A: did not release intracellular Ca2+

Q: And the “increase in intracellular Ca2+ ([Ca2+]i)” value (human EDG8, SEQ ID NO. 2)?
A: most potent activator of EDG8

Q: And the “mobilization of intracellular Ca2+” value (EDG1)?
A: elicited intracellular Ca2+ signals

Q: What about the “mobilization of intracellular Ca2+” value (EDG3) of the same molecule?
A: elicited intracellular Ca2+ signals

Q: What about the “mobilization of intracellular Ca2+” value (EDG5) of the same molecule?
A: elicited intracellular Ca2+ signals

Q: And the “mobilization of intracellular Ca2+” value (EDG6)?
A: failed to detect a significant Ca2+ increase above basal levels

Q: `CCCCCCCCCCCCC/C=C/[C@@H](O)[C@@H](N)COP(=O)([O-])OCC[N+](C)(C)C` [SPC, sphingosylphosphorylcholine] was tested. Which “increase in intracellular Ca2+ ([Ca2+]i)” value (human EDG8, SEQ ID NO. 2) did it give?
A: failed to generate any significant response in concentrations up to 1 µM

Q: Which “increase in intracellular Ca2+ ([Ca2+]i)” value (human EDG8, SEQ ID NO. 2) does the source give for lysophosphatidylcholine [LPC] here?
A: failed to generate any significant response in concentrations up to 1 µM
